This is an account of results in PMC10184535, “An HR2-Mimicking Sulfonyl-γ-AApeptide Is a Potent Pan-coronavirus Fusion Inhibitor with Strong Blood–Brain Barrier Permeability, Long Half-Life, and Promising Oral Bioavailability” (ACS Central Science, 2023).

Read-outs that look alike come from different tables or passages of the source.

Usually IC50 stands for the concentration that gives 50% inhibition. The term Kd denotes the equilibrium constant for the complex coming apart. One may read the Papp as a coefficient for how fast a substance crosses the barrier. A low value points to slow passage.

In one series the test system is pseudotyped HCoV-NL63. The conditions noted are these: 48 h.
A further series concerns pseudotyped MERS-CoV. Conditions: 48 h.
A further series deals with pseudotyped SARS-CoV. The conditions noted are these: 48 h.
For series [1], the system named is pseudotyped bat SARSr-CoV WIV1. Conditions: 48 h.
Series [2] relates to SARS-CoV-2 PsV. The conditions noted are these: previously reported EK1 peptide; read-out: IC50, SARS-CoV-2 PsV infection, previously reported; cited from earlier work.
The next series concerns the target T1, HR1 peptide (911–987) (Severe acute respiratory syndrome coronavirus 2, UniProt P0DTC2).
T1 construct: purchased NovoPep Limited
In words: Fluorescence polarization binding to HR1 peptide. Further details: species or system SARS-CoV-2. (In general: Polarisation of emitted light reports the rotation of a fluorescent probe.)

Series [3] has as its system SARS-CoV-2 PsV. Conditions: 48 h.
Another series in a line: PAMPA-GIT. Conditions: at three different pH values. A general note: The PAMPA barrier holds no transporters, so it reflects passive diffusion.

For the compound `CC[C@H](C)[C@H](NC(=O)[C@H](C)NC(=O)[C@H](CCC(=O)O)NC(=O)[C@H](CCC(=O)O)NC(=O)[C@H](CC(C)C)NC(=O)[C@H](CCCCN)NC(=O)[C@H](CCCCN)NC(=O)[C@H](CCSC)NC(=O)[C@H](CCC(=O)O)NC(=O)[C@H](Cc1ccc(O)cc1)NC(=O)[C@H](CCC(=O)O)NC(=O)[C@H](CC(C)C)NC(=O)[C@H](CC(=O)O)NC(=O)[C@H](CC(C)C)NC(=O)[C@H](Cc1ccccc1)NC(=O)[C@@H](NC(=O)[C@@H](NC(=O)[C@H](CC(N)=O)NC(=O)[C@@H](NC(=O)[C@H](CCC(N)=O)NC(=O)[C@H](CC(=O)O)NC(=O)[C@H](CC(C)C)NC(=O)[C@@H](N)CO)[C@@H](C)CC)C(C)C)[C@@H](C)O)C(=O)N[C@@H](CCCCN)C(=O)N[C@@H](CCCCN)C(=O)N[C@@H](CC(C)C)C(=O)N[C@@H](CCC(=O)O)C(=O)N[C@@H](CCC(=O)O)C(=O)N[C@@H](CO)C(=O)N[C@@H](Cc1ccc(O)cc1)C(=O)N[C@H](C(=O)N[C@@H](CC(=O)O)C(=O)N[C@@H](CC(C)C)C(=O)N[C@@H](CCCCN)C(=O)N[C@@H](CCC(=O)O)C(=O)N[C@@H](CC(C)C)C(=O)O)[C@@H](C)CC` [EK1], the IC50 with pseudotyped HCoV-NL63 was 4170 nM; with pseudotyped MERS-CoV it was 210 nM; with pseudotyped SARS-CoV, 1210 nM; in series [1], 19000 nM; in the series with SARS-CoV-2 PsV [2], 2380 nM. On HR1 peptide (911–987), `CC(=O)N[C@H](CC(C)C)CN(CC(=O)N[C@H](CCCCN)CN(CC(=O)N[C@H](CC(C)C)CN(CC(=O)N[C@H](CCC(=O)O)CN(CC(=O)N[C@H](CC(C)C)CN(CC(=O)N[C@H](CCC(=O)O)CN(CC(=O)N[C@H](C)CN(CC(=O)N[C@H](CCCCN)CN(CC(=O)N[C@H](C)CN(CC(=O)N[C@H](CCC(=O)O)CN(CC(=O)N[C@H](CC(C)C)CN(CC(N)=O)S(=O)(=O)CC(C)C)S(C)(=O)=O)S(=O)(=O)CCN)S(C)(=O)=O)S(=O)(=O)CCN)S(=O)(=O)CC(C)C)S(=O)(=O)CCN)S(=O)(=O)CCN)S(C)(=O)=O)S(=O)(=O)CCN)S(=O)(=O)CCN` [XY1] came in with a Kd of 287 nM. Turning to `CC(=O)N[C@H](CC(C)C)CN(CC(=O)N[C@H](CCCCN)CN(CC(=O)N[C@H](CC(C)C)CN(CC(=O)N[C@H](CCC(=O)O)CN(CC(=O)N[C@H](CC(C)C)CN(CC(=O)N[C@H](CCC(=O)O)CN(CC(=O)N[C@H](C)CN(CC(=O)N[C@H](CCCCN)CN(CC(=O)N[C@H](C)CN(CC(=O)N[C@H](CCC(=O)O)CN(CC(=O)N[C@H](CC(C)C)CN(CC(N)=O)S(=O)(=O)CC(C)C)S(=O)(=O)CC(C)C)S(=O)(=O)CCN)S(C)(=O)=O)S(=O)(=O)CCN)S(=O)(=O)CC(C)C)S(=O)(=O)CCN)S(=O)(=O)CCN)S(C)(=O)=O)S(=O)(=O)CCN)S(=O)(=O)CCN` [XY2], the affinity on HR1 peptide (911–987), expressed as Kd, was 329 nM. On HR1 peptide (911–987), `CC(=O)N[C@H](CC(C)C)CN(CC(=O)N[C@H](CCCCN)CN(CC(=O)N[C@H](CC(C)C)CN(CC(=O)N[C@H](CCC(=O)O)CN(CC(=O)N[C@H](CC(C)C)CN(CC(=O)N[C@H](CCC(=O)O)CN(CC(=O)N[C@H](C)CN(CC(=O)N[C@H](CCCCN)CN(CC(=O)N[C@H](C)CN(CC(=O)N[C@H](CCC(=O)O)CN(CC(=O)N[C@H](CC(C)C)CN(CC(N)=O)S(=O)(=O)CC(C)C)S(C)(=O)=O)S(=O)(=O)CCN)S(=O)(=O)CC(C)C)S(=O)(=O)CCN)S(=O)(=O)CC(C)C)S(=O)(=O)CCN)S(=O)(=O)CCN)S(C)(=O)=O)S(=O)(=O)CCN)S(=O)(=O)CCN` [XY3] displayed a Kd of 426 nM.

`CC(=O)N[C@H](CC(C)C)CN(CC(=O)N[C@H](CCCCN)CN(CC(=O)N[C@H](CC(C)C)CN(CC(=O)N[C@H](CCC(=O)O)CN(CC(=O)N[C@H](CC(C)C)CN(CC(=O)N[C@H](CCC(=O)O)CN(CC(=O)N[C@H](C)CN(CC(=O)N[C@H](CCCCN)CN(CC(=O)N[C@H](C)CN(CC(=O)N[C@H](CCC(=O)O)CN(CC(=O)N[C@H](CC(C)C)CN(CC(=O)NCCCCCC(=O)NCCCCCC(=O)N[C@@H](CSCC(=O)OCCOCCOCCOCCO[C@H]1CC[C@@]2(C)C(=CC[C@H]3[C@@H]4CC[C@H]([C@H](C)CCCC(C)C)[C@@]4(C)CC[C@@H]32)C1)C(N)=O)S(=O)(=O)CC(C)C)S(C)(=O)=O)S(=O)(=O)CCN)S(C)(=O)=O)S(=O)(=O)CCN)S(=O)(=O)CC(C)C)S(=O)(=O)CCN)S(=O)(=O)CCN)S(C)(=O)=O)S(=O)(=O)CCN)S(=O)(=O)CC(C)C` [XY4-C1] yielded a half-maximal inhibitory concentration (IC50) with SARS-CoV-2 PsV [3] of 29800 nM. Still for that read-out and setting: next, `CC(=O)N[C@H](CC(C)C)CN(CC(=O)N[C@H](CCCCN)CN(CC(=O)N[C@H](CC(C)C)CN(CC(=O)N[C@H](CCC(=O)O)CN(CC(=O)N[C@H](CC(C)C)CN(CC(=O)N[C@H](CCC(=O)O)CN(CC(=O)N[C@H](C)CN(CC(=O)N[C@H](CCCCN)CN(CC(=O)N[C@H](C)CN(CC(=O)N[C@H](CCC(=O)O)CN(CC(=O)N[C@H](CC(C)C)CN(CC(=O)NCCCCCC(=O)NCCCCCC(=O)N[C@@H](CSCC(=O)OCCOCCOCCOCCOCCOCCOCCOCCO[C@H]1CC[C@@]2(C)C(=CC[C@H]3[C@@H]4CC[C@H]([C@H](C)CCCC(C)C)[C@@]4(C)CC[C@@H]32)C1)C(N)=O)S(=O)(=O)CC(C)C)S(C)(=O)=O)S(=O)(=O)CCN)S(C)(=O)=O)S(=O)(=O)CCN)S(=O)(=O)CC(C)C)S(=O)(=O)CCN)S(=O)(=O)CCN)S(C)(=O)=O)S(=O)(=O)CCN)S(=O)(=O)CC(C)C` [XY4-C2]: 2850 nM; `CC(=O)N[C@H](CC(C)C)CN(CC(=O)N[C@H](CCCCN)CN(CC(=O)N[C@H](CC(C)C)CN(CC(=O)N[C@H](CCC(=O)O)CN(CC(=O)N[C@H](CC(C)C)CN(CC(=O)N[C@H](CCC(=O)O)CN(CC(=O)N[C@H](C)CN(CC(=O)N[C@H](CCCCN)CN(CC(=O)N[C@H](C)CN(CC(=O)N[C@H](CCC(=O)O)CN(CC(=O)N[C@H](CC(C)C)CN(CC(=O)NCCCCCC(=O)NCCCCCC(=O)N[C@@H](CSCC(=O)OCCOCCOCCOCCOCCOCCOCCOCCOCCOCCOCCOCCO[C@H]1CC[C@@]2(C)C(=CC[C@H]3[C@@H]4CC[C@H]([C@H](C)CCCC(C)C)[C@@]4(C)CC[C@@H]32)C1)C(N)=O)S(=O)(=O)CC(C)C)S(C)(=O)=O)S(=O)(=O)CCN)S(C)(=O)=O)S(=O)(=O)CCN)S(=O)(=O)CC(C)C)S(=O)(=O)CCN)S(=O)(=O)CCN)S(C)(=O)=O)S(=O)(=O)CCN)S(=O)(=O)CC(C)C` [XY4-C3]: 920 nM; `CC(=O)N[C@H](CC(C)C)CN(CC(=O)N[C@H](CCCCN)CN(CC(=O)N[C@H](CC(C)C)CN(CC(=O)N[C@H](CCC(=O)O)CN(CC(=O)N[C@H](CC(C)C)CN(CC(=O)N[C@H](CCC(=O)O)CN(CC(=O)N[C@H](C)CN(CC(=O)N[C@H](CCCCN)CN(CC(=O)N[C@H](C)CN(CC(=O)N[C@H](CCC(=O)O)CN(CC(=O)N[C@H](CC(C)C)CN(CC(=O)N[C@H](CO)CN(CC(=O)N[C@H](CO)CN(CC(=O)N[C@@H](CSCC(=O)OCCOCCOCCOCCOCCOCCOCCOCCO[C@H]1CC[C@@]2(C)C(=CC[C@H]3[C@@H]4CC[C@H]([C@H](C)CCCC(C)C)[C@@]4(C)CC[C@@H]32)C1)C(N)=O)S(C)(=O)=O)S(C)(=O)=O)S(=O)(=O)CC(C)C)S(C)(=O)=O)S(=O)(=O)CCN)S(C)(=O)=O)S(=O)(=O)CCN)S(=O)(=O)CC(C)C)S(=O)(=O)CCN)S(=O)(=O)CCN)S(C)(=O)=O)S(=O)(=O)CCN)S(=O)(=O)CC(C)C` [XY4-C5]: 4050 nM. On the same count and under the same terms, next, `CC(=O)N[C@H](CC(C)C)CN(CC(=O)N[C@H](CCCCN)CN(CC(=O)N[C@H](CC(C)C)CN(CC(=O)N[C@H](CCC(=O)O)CN(CC(=O)N[C@H](CC(C)C)CN(CC(=O)N[C@H](CCC(=O)O)CN(CC(=O)N[C@H](C)CN(CC(=O)N[C@H](CCCCN)CN(CC(=O)N[C@H](C)CN(CC(=O)N[C@H](CCC(=O)O)CN(CC(=O)N[C@H](CC(C)C)CN(CC(=O)N[C@H](CO)CN(CC(=O)N[C@H](CO)CN(CC(=O)N[C@@H](CSCC(=O)OCCOCCOCCOCCOCCOCCOCCOCCOCCOCCOCCOCCO[C@H]1CC[C@@]2(C)C(=CC[C@H]3[C@@H]4CC[C@H]([C@H](C)CCCC(C)C)[C@@]4(C)CC[C@@H]32)C1)C(N)=O)S(C)(=O)=O)S(C)(=O)=O)S(=O)(=O)CC(C)C)S(C)(=O)=O)S(=O)(=O)CCN)S(C)(=O)=O)S(=O)(=O)CCN)S(=O)(=O)CC(C)C)S(=O)(=O)CCN)S(=O)(=O)CCN)S(C)(=O)=O)S(=O)(=O)CCN)S(=O)(=O)CC(C)C` [XY4-C6]: 2630 nM.

In turn, `CC(=O)N[C@H](CC(C)C)CN(CC(=O)N[C@H](CCCCN)CN(CC(=O)N[C@H](CC(C)C)CN(CC(=O)N[C@H](CCC(=O)O)CN(CC(=O)N[C@H](CC(C)C)CN(CC(=O)N[C@H](CCC(=O)O)CN(CC(=O)N[C@H](C)CN(CC(=O)N[C@H](CCCCN)CN(CC(=O)N[C@H](C)CN(CC(=O)N[C@H](CCC(=O)O)CN(CC(=O)N[C@H](CC(C)C)CN(CC(N)=O)S(=O)(=O)CC(C)C)S(C)(=O)=O)S(=O)(=O)CCN)S(C)(=O)=O)S(=O)(=O)CCN)S(=O)(=O)CC(C)C)S(=O)(=O)CCN)S(=O)(=O)CCN)S(C)(=O)=O)S(=O)(=O)CCN)S(=O)(=O)CC(C)C` [XY4] registered a Kd at HR1 peptide (911–987) of 132 nM. `Cc1cc(=O)n(-c2ccccc2)n1C` [antipyrine] displayed a Papp at 30 min, 200 μM in the series “PAMPA-GIT” (200 μM, negative control) of less than 6 ×10⁻⁶ cm/s. Take `NC(=O)N1c2ccccc2C=Cc2ccccc21` [carbamazepine]: the Papp at 30 min, 50 μM in “PAMPA-GIT” (50 μM, positive control) was approximately 150 ×10⁻⁶ cm/s.
